Test results as given in ChEMBL document CHEMBL3352036, “Identification of 4'-O-β-D-glucosyl-5-O-methylvisamminol as a novel epigenetic suppressor of histone H3 phosphorylation at Ser10 and its interaction with 14-3-3ε” (Bioorg Med Chem Lett, 2014).
Active and inactive are the calls of the source. No cut-off for these calls is given here.

Experiments:
[1] = tested on: HT-29; assay: Inhibition of histone H3 Ser10 phosphorylation in human HT-29 cells at 10 uM incubated for 1 hr by Western blotting method; assay type: functional, cell-based
[2] = tested on: HT-29; assay: Inhibition of c-Jun protein expression in human HT-29 cells at 10 uM incubated for 1 hr by Western blotting method; assay type: functional, cell-based
[3] = target: T1, 14-3-3 protein epsilon (Homo sapiens) (UniProt P62258); assay: Inhibition of recombinant 14-3-3epsilon protein (unknown origin) expression in Escherichia coli assessed as reduction in 14-3-3epsilon and histone H3 Ser10 interaction using human HT-29 cells lysates at 1 uM incubated for 1 hr by Western blotting based GST-pull down assay
T1 sequence (whole entry): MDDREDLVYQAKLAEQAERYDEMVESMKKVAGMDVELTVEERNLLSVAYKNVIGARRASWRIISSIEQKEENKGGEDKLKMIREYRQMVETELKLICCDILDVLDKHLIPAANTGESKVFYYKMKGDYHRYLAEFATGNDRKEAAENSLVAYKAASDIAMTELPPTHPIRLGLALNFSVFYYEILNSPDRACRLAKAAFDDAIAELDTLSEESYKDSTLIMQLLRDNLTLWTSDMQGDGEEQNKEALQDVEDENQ

[4] = tested on: HT-29; assay: Inhibition of 14-3-3epsilon protein expression in human HT-29 cells at 10 uM incubated for 1 to 4 hrs by Western blotting method; assay type: functional, cell-based
[5] = tested on: HT-29; assay: Induction of cell cycle arrest in human HT-29 cells assessed as accumulation at S phase at 10 uM incubated for 6 hrs by propidium iodide staining based FACS assay (reference value: 21.94%); assay type: functional
[6] = tested on: HT-29; assay: Induction of Nrf2 protein protein expression in human HT-29 cells at 10 uM incubated for 6 to 24 hrs by Western blotting method; assay type: functional, cell-based
[7] = target: Aurora kinase B (Homo sapiens) (UniProt Q96GD4); assay: Inhibition of Aurora B kinase phosphorylation in human HT-29 cells at 10 uM incubated for 15 to 120 mins by Western blotting method; assay type: cell-based
Sequence of Aurora kinase B (Homo sapiens) (Q96GD4 whole entry): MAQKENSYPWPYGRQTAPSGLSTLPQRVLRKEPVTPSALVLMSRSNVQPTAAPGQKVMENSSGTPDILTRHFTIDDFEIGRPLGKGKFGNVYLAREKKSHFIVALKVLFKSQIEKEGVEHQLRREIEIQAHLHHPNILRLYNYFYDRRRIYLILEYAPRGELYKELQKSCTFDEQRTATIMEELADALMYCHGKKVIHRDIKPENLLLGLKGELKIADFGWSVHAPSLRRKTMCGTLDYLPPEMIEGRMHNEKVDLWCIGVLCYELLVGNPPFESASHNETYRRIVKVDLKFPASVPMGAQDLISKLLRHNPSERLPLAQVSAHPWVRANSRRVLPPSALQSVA

[8] = tested on: HT-29; assay: Induction of HO-1 protein protein expression in human HT-29 cells at 10 uM incubated for 6 to 24 hrs by Western blotting method; assay type: functional, cell-based
[9] = target: MAP kinase p38 (Homo sapiens) (UniProt O15264+Q15759+Q16539+P53778); assay: Inhibition of p38 phosphorylation in human HT-29 cells at 10 uM incubated for 15 to 120 mins by Western blotting method; assay type: cell-based
[10] = target: T2, Aurora kinase C (Homo sapiens) (UniProt Q9UQB9); assay: Inhibition of Aurora C kinase phosphorylation in human HT-29 cells at 10 uM incubated for 15 to 120 mins by Western blotting method; assay type: cell-based
T2 sequence (whole entry): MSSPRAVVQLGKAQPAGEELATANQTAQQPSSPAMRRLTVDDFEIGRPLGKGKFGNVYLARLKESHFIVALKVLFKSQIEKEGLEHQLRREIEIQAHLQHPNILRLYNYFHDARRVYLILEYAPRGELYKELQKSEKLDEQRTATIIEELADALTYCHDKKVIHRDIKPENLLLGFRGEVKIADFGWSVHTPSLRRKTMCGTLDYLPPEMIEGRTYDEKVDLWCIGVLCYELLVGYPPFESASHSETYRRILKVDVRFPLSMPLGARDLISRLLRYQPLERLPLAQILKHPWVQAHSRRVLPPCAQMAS

[11] = target: Mitogen-activated protein kinase 9 (Homo sapiens) (UniProt P45984); assay: Inhibition of JNK2 phosphorylation in human HT-29 cells at 10 uM incubated for 15 to 120 mins by Western blotting method; assay type: cell-based
Sequence of Mitogen-activated protein kinase 9 (Homo sapiens) (P45984 whole entry, looked up): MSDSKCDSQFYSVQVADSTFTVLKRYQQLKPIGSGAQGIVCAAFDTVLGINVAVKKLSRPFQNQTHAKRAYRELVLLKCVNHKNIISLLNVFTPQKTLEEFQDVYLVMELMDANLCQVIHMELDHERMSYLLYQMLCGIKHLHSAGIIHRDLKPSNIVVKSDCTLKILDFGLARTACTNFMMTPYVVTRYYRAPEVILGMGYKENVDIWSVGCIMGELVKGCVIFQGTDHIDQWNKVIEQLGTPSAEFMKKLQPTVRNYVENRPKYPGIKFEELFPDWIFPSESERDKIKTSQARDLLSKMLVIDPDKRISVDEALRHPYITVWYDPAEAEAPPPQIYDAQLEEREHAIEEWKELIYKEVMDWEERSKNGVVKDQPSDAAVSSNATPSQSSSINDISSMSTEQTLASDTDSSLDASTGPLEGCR

[12] = tested on: HT-29; assay: Induction of cell cycle arrest in human HT-29 cells assessed as accumulation at G2/M phase at 10 uM incubated for 24 hrs by propidium iodide staining based FACS assay (reference value: 14.8%); assay type: functional
[13] = target: T3, Aurora kinase A (Homo sapiens) (UniProt O14965); assay: Inhibition of Aurora A kinase phosphorylation in human HT-29 cells at 10 uM incubated for 15 to 120 mins by Western blotting method; assay type: cell-based
T3 sequence (whole entry): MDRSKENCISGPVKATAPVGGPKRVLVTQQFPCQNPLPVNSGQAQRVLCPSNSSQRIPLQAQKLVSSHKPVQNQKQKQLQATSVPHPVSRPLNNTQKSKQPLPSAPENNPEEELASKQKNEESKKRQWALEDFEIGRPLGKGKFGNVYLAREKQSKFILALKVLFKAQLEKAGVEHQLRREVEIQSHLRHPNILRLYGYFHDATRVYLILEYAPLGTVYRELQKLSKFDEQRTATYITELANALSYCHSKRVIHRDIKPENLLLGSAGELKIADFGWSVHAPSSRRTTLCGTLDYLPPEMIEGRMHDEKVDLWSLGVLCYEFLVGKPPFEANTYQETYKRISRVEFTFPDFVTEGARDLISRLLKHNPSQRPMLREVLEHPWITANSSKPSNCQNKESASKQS

[14] = tested on: HT-29; assay: Toxicity against human HT-29 cells assessed as effect on cell viability at 10 uM incubated for 24 hrs by MTT assay; assay type: cell-based; conditions: ht-29, 24 h
[15] = tested on: HT-29; assay: Induction of cell cycle arrest in human HT-29 cells assessed as accumulation at G0/G1 phase at 10 uM incubated for 24 hrs by propidium iodide staining based FACS assay (reference value: 60.39%); assay type: functional
[16] = tested on: HT-29; assay: Induction of cell cycle arrest in human HT-29 cells assessed as accumulation at G2/M phase at 10 uM incubated for 6 hrs by propidium iodide staining based FACS assay (reference value: 14.8%); assay type: functional
[17] = tested on: HT-29; assay: Induction of cell cycle arrest in human HT-29 cells assessed as accumulation at subG1 phase at 10 uM incubated for 6 hrs by propidium iodide staining based FACS assay (reference value: 0.79%); assay type: functional
[18] = tested on: HT-29; assay: Induction of cell cycle arrest in human HT-29 cells assessed as accumulation at subG1 phase at 10 uM incubated for 24 hrs by propidium iodide staining based FACS assay (reference value: 0.79%); assay type: functional
[19] = tested on: HT-29; assay: Induction of cell cycle arrest in human HT-29 cells assessed as accumulation at S phase at 10 uM incubated for 24 hrs by propidium iodide staining based FACS assay (reference value: 21.94%); assay type: functional
[20] = tested on: HT-29; assay: Induction of cell cycle arrest in human HT-29 cells assessed as accumulation at G0/G1 phase at 10 uM incubated for 6 hrs by propidium iodide staining based FACS assay (reference value: 60.39%); assay type: functional
[21] = target: Mitogen-activated protein kinase 8 (Homo sapiens) (UniProt P45983); assay: Inhibition of JNK1 phosphorylation in human HT-29 cells at 10 uM incubated for 15 to 120 mins by Western blotting method; assay type: cell-based
Sequence of Mitogen-activated protein kinase 8 (Homo sapiens) (P45983 whole entry): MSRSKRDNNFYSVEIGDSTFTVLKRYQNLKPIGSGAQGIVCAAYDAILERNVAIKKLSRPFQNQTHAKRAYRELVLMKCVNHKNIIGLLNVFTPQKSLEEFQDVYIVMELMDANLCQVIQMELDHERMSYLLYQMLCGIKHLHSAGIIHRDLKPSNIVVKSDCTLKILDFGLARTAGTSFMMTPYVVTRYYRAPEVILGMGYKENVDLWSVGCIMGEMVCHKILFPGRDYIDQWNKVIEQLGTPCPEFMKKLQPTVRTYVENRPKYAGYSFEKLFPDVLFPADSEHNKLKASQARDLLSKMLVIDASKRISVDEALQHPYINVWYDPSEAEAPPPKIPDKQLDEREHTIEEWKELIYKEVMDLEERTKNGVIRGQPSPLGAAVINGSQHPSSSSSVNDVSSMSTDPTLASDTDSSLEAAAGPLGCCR

**Q.** Which inhibition [1] does the source give for `C[C@H]1[C@H](C)CC[C@]2(C)CC[C@]3(C)C(=CC[C@@H]4[C@@]5(C)CC[C@H](O)C(C)(C)[C@@H]5CC[C@]43C)[C@H]12` here?
**A.** Active

**Q.** What about the inhibition [2] of the same compound?
**A.** Active

**Q.** And the inhibition [3]?
**A.** inactive

**Q.** What about the inhibition [4] of the same compound?
**A.** inactive

**Q.** `CC1(C)CC[C@]2(C(=O)O)CC[C@]3(C)C(=CC[C@@H]4[C@@]5(C)CC[C@H](O)C(C)(C)[C@@H]5CC[C@]43C)[C@@H]2C1` was tested. Which inhibition [1] did it give?
**A.** Active

**Q.** And the inhibition [2]?
**A.** Active

**Q.** And the inhibition [3]?
**A.** inactive

**Q.** And the inhibition [4]?
**A.** inactive

**Q.** Which results are given for `COc1c2c(cc3oc(C)cc(=O)c13)OC(C(C)(C)O[C@H]1O[C@@H](CO)[C@H](O)[C@@H](O)[C@@H]1O)C2` (stereo partly drawn)?
**A.** inhibition [1]: Active; inhibition [2]: Active; Activity [5]: 16.85%; Activity [6]: Active; inhibition [7]: Active; Activity [8]: Active; inhibition [9]: inactive; inhibition [10]: Active; inhibition [11]: Active; Activity [12]: 22.29%; inhibition [3]: Active; inhibition [13]: Active; Activity [14]: Non-toxic; Activity [15]: 59.07%; Activity [16]: 21.86%; Activity [17]: 1.06%; Activity [18]: 0.88%; Activity [19]: 15.97%; Activity [20]: 58.61%; inhibition [4]: inactive; inhibition [21]: Active

**Q.** With `CCCCCCCCCCCCC/C=C1/C(=O)O[C@H](C)[C@@H]1O` as the compound, how does the inhibition [1] read?
**A.** Active

**Q.** What about the inhibition [2] of the same compound?
**A.** Active

**Q.** What about the inhibition [3] of the same compound?
**A.** inactive

**Q.** And the inhibition [4]?
**A.** inactive
